Consider 46 molecules from patent EP4660185A1, “NAV1.7- AND/OR NAV1.8-INHIBITING AMIDES, PROCESSES FOR THE PREPARATION THEREOF, COMPOSITIONS, USES, METHODS FOR TREATMENT USING SAME, AND KITS” (Eurofarma Laboratórios S.A., priority 2023, dated 2024).

In test [1] the target is T1, human sodium channels Nav 1.7 (Homo sapiens, UniProt Q15858).
T1 construct: expressed in transfected cells
The experiment in a line: Automated whole-cell voltage-clamp (ScreenPatch 384P) sodium current block, Nav 1.7. The following applies: CHO cells stably expressing human Nav 1.7; holding -100 mV, inactivation step -40 mV for 8 seconds, test step 0 mV (TP1A); exposure at least five minutes, room temperature; mean where tested in two or more assays; read-out: Nav1.7 IC50. Type of test: cell-based. On the procedure:
(§1) Biological assays were performed on Chinese hamster ovary (CHO) cells that express human sodium channels Nav 1.8 or Nav 1.7 in a stable manner.
(§2) The experimental protocol voltage-clamp using the whole cell configuration was established on the automated ScreenPatch® 384P platform (SP384PE, Nanion Technologies, Livingston, NJ) and the results were recorded with a Nanion 384-well Patch Clamp chip (NPC) (Nanion Technologies, Livingston, NJ).
(§3) Compounds of Formula Ia and Formula Ib were diluted in eight concentrations in the extracellular solution composed of saline solution, buffered with HEPES (mM): NaCl, 137; KCl, 4; CaCl2, 3,8; MgCl2, 1; HEPES, 10; Glucose, 10; pH 7.4. The […], 50; CsF, 90; MgCl2, 5; EGTA, 5; HEPES, 10; pH 7.2. The duration of exposure of each compound with cells expressing Nav 1.7 or Nav 1.8 was at least five minutes, and the assays were performed at room temperature.
(§4) The measurements of the sodium currents of Nav 1.8 and Nav 1.7 were obtained using the voltage protocol described below: A holding voltage of -100 mV was established followed by an inactivation voltage step at -40 mV for 8 seconds, followed by a step of -100 mV for 20 ms, followed by a 20 ms step for 10 mV for Nav 1.8 or 0 mV for Nav 1.7 (TP1A) before returning to the holding voltage of -100 mV.
(§5) The protocol was repeated at a frequency of 0.05 Hz and the amplitude of the current was quantified throughout the recording of the TP1A phase. The variation in the amplitude of the peak current was evaluated according to the formula described below, after exposing the cells expressing the channels to each concentration of the different compounds: % Block = (1−(ITP1A,molecule/ITP1A,basal)×100%, [formula] wherein ITP1A,basal and ITP1A,molecule represent the peaks of sodium current input into TP1A before exposure to the compound and in the presence of the compound, respectively.
(§6) Data were obtained by nonlinear regression (nonlinear least squares) with XLfit for Excel (Microsoft, Redmond, WA).
(§7) The compounds were tested in at least one assay to obtain the value of CI50. For compounds that were tested in two or more assays, the results are described as the mean of the CI50 values.

Test [2] concerns the target T2, human sodium channels Nav 1.8 (Homo sapiens, UniProt Q9Y5Y9).
T2 construct: expressed in transfected cells
Briefly: Automated whole-cell voltage-clamp (ScreenPatch 384P) sodium current block, Nav 1.8. The following applies: CHO cells stably expressing human Nav 1.8; holding -100 mV, inactivation step -40 mV for 8 seconds, test step 10 mV (TP1A); exposure at least five minutes, room temperature; mean where tested in two or more assays; read-out: Nav1.8 IC50. Type of test: cell-based. On the procedure: as §1, §2, §3, §4, §5, §6, §7

T2 sequence (Q9Y5Y9 whole entry): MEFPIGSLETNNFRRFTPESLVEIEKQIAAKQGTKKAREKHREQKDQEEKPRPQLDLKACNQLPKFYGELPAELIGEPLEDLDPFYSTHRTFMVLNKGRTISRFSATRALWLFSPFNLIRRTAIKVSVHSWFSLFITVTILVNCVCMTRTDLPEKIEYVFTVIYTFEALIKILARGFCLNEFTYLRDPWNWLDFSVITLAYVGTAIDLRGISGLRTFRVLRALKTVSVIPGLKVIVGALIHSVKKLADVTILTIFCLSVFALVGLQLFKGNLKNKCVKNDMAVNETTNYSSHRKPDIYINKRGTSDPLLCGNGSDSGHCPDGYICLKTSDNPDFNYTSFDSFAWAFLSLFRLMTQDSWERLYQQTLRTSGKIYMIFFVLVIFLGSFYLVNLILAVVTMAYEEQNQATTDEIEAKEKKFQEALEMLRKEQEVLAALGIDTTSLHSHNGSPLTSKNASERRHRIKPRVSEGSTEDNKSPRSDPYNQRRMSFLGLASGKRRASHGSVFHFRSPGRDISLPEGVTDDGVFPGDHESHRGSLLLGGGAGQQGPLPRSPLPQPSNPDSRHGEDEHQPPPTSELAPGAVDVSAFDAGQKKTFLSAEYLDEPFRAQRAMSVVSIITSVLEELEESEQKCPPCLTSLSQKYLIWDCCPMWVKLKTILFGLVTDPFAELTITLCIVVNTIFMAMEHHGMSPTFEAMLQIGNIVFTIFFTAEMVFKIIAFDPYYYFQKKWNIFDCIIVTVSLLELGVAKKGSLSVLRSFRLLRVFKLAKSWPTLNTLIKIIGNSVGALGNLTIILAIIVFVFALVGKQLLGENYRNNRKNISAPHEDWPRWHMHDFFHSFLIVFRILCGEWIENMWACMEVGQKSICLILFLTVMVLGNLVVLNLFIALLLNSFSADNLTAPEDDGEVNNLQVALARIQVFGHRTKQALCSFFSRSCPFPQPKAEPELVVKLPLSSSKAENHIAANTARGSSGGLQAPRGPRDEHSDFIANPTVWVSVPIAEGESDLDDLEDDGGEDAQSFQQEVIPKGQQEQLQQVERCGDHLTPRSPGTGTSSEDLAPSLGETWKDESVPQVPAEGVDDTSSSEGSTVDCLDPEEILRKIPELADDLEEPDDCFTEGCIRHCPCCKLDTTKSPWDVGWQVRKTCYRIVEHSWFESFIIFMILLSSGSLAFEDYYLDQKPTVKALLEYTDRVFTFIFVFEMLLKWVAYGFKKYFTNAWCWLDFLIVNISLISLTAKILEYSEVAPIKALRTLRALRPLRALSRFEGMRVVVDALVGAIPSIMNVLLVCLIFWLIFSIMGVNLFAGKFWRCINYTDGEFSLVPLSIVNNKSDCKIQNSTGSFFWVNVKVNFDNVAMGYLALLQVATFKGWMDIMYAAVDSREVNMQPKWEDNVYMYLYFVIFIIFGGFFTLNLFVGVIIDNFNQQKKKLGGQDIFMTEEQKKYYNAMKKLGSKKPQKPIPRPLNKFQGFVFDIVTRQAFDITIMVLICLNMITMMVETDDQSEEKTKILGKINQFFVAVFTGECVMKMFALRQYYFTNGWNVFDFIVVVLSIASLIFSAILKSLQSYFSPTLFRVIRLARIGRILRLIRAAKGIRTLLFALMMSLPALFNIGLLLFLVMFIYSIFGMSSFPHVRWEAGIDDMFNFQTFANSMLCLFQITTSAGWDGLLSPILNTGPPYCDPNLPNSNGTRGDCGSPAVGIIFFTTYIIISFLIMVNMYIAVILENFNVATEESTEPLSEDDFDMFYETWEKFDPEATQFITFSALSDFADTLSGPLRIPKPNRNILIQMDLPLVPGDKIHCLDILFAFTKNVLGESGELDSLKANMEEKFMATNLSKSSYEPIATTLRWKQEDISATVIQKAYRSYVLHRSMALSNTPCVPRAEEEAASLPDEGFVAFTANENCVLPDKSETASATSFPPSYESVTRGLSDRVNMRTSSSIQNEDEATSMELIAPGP
T1 sequence (Q15858 whole entry): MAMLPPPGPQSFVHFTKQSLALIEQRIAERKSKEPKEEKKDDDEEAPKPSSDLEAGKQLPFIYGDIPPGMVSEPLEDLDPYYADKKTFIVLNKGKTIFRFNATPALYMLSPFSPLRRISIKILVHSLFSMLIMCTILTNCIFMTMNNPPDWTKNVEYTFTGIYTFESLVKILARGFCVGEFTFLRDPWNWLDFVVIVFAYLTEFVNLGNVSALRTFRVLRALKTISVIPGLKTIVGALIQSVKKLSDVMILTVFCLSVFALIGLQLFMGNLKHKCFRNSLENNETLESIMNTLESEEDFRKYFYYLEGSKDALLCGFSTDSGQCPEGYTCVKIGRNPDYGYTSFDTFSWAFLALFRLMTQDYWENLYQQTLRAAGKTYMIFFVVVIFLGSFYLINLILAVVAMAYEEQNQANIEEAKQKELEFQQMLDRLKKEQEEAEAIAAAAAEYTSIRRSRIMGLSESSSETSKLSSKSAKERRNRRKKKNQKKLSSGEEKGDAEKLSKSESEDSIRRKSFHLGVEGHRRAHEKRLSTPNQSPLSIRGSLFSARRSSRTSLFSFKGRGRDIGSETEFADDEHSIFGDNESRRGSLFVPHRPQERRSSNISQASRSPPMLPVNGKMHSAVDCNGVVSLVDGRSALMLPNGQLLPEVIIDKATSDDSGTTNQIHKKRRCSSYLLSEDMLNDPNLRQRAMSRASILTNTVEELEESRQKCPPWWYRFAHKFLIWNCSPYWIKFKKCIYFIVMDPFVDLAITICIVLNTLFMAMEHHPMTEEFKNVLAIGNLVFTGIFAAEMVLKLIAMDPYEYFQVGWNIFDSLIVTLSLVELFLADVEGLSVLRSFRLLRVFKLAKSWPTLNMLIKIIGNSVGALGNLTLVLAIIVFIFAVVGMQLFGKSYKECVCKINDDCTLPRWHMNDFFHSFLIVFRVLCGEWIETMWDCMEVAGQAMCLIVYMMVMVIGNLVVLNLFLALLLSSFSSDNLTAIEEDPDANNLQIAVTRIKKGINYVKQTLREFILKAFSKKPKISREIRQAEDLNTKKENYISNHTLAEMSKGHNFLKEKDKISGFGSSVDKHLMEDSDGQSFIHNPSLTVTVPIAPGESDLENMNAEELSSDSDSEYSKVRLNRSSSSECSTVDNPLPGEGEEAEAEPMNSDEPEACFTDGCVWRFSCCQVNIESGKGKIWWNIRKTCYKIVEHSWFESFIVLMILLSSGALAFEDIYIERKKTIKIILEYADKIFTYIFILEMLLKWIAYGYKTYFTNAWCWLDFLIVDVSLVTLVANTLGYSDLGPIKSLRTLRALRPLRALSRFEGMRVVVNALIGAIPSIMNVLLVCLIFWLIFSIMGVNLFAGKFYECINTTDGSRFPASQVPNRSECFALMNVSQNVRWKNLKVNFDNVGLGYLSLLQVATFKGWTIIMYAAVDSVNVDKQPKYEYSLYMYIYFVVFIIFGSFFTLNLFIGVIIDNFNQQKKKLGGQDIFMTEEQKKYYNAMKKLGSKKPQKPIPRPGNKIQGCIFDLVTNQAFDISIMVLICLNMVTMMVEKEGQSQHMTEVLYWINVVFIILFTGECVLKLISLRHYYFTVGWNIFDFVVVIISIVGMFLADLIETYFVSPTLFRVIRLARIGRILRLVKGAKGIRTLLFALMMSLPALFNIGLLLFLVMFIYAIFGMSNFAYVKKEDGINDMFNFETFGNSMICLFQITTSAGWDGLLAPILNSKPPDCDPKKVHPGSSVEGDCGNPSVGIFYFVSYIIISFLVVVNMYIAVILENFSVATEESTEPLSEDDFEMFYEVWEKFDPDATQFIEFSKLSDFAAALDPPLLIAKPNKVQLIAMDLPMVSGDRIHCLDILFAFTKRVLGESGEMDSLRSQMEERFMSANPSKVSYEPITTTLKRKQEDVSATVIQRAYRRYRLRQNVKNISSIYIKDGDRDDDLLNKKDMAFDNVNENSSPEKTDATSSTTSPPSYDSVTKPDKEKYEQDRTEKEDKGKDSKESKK

In the case of `CCOc1ccc(-c2cncc(C(=O)Nc3cc4c(OC)cccc4[nH]3)n2)cc1` [compound 60], the IC50 in test [1] was 0.5 to 1 µM; in test [2], < 0.5 µM.

`CCOc1ccc(-c2cncc(C(=O)Nc3nc4c(F)ccc(OC)c4s3)n2)cn1` [compound 61]: the IC50 in test [1] and in test [2] was > 1 µM each time.

On to `CCOc1ccc(-c2cncc(C(=O)Nc3cn4c(F)ccc(OC)c4n3)n2)cn1` [compound 63], for which the IC50 in test [1] and in test [2] was > 1 µM each time.

Consider `CCOc1ccc(-c2cncc(C(=O)Nc3nc4c(F)ccc(OC)c4[nH]3)n2)cn1` [compound 64], for which the IC50 in test [1] and in test [2] was > 1 µM each time.

Take `CCOc1ccc(-c2cncc(C(=O)Nc3nc4c(F)ccc(OC)c4o3)n2)cn1` [compound 65]: the IC50 in test [1] and in test [2] was > 1 µM each time.

On to `CCOc1ccc(-c2cncc(C(=O)Nc3nc4c(OC)ccc(F)c4n3C)n2)cn1` [compound 66], for which the IC50 in test [1] and in test [2] was > 1 µM throughout.

Regarding `CCOc1ccc(-c2cncc(C(=O)Nc3nc4c(F)ncc(OC)c4o3)n2)cn1` [compound 67], the IC50 in test [1] and in test [2] was > 1 µM in each case.

In the case of `CCOc1ccc(-c2cncc(C(=O)Nc3cn4c(OC)ccc(F)c4n3)n2)cn1` [compound 68], the IC50 in test [1] and in test [2] was > 1 µM throughout.

As for `CCOc1ccc(-c2cncc(C(=O)Nc3cc4c(F)ccc(OC)c4[nH]3)n2)cn1` [compound 69], the IC50 in test [1] is > 1 µM; in test [2], < 0.5 µM.

`CCOc1ccc(-c2cncc(C(=O)Nc3cc4c(F)ccc(OC)c4n3C)n2)cn1` [compound 70]: the IC50 in test [1] and in test [2] was > 1 µM in each case.

Regarding `CCOc1ccc(-c2cncc(C(=O)N(C)c3cc4c(F)ccc(OC)c4[nH]3)n2)cn1` [compound 71], the IC50 in test [1] and in test [2] was > 1 µM throughout.

With `CCOc1ccc(-c2cncc(C(=O)Nc3cc4cccc(OC)c4[nH]3)n2)cn1` [compound 72], the IC50 in test [1] and in test [2] was > 1 µM throughout.

Consider `CCOc1ccc(-c2cncc(C(=O)Nc3cc4c(OC)cccc4[nH]3)n2)cn1` [compound 73], for which the IC50 in test [1] and in test [2] was > 1 µM in each case.

Consider `CCOc1ccc(-c2cncc(C(=O)Nc3cc4c(OC)ccc(F)c4[nH]3)n2)cn1` [compound 74], for which the results for the IC50 in test [1] and in test [2] were 0.5 to 1 µM and < 0.5 µM, respectively.

Consider `CCOc1ccc(-c2cncc(C(=O)Nc3cc4c(OC)ccc(F)c4n3C)n2)cn1` [compound 75], for which the IC50 in test [1] and in test [2] was > 1 µM throughout.

`CCOc1ccc(-c2cncc(C(=O)Nc3cc4c(F)ccc(OC)c4[nH]3)n2)cc1` [compound 76]: the IC50 in test [1] and in test [2] was > 1 µM each time.

With `CCOc1ccc(-c2cncc(C(=O)Nc3cc4c(OC)ccc(F)c4[nH]3)n2)cc1` [compound 77], the IC50 in test [1] and in test [2] was > 1 µM each time.

Consider `CCOc1ccc(-c2cncc(C(=O)N[C@H]3CCc4c(OC)ccc(F)c4C3)n2)cn1` [compound 78], for which the IC50 is > 1 µM in test [1] and < 0.5 µM in test [2].

Consider `CCOc1ccc(-c2cncc(C(=O)N[C@@H]3CCc4c(OC)ccc(F)c4C3)n2)cn1` [compound 79], for which the IC50 in test [1] and in test [2] was 0.5 to 1 µM each time.

With `CCOc1ccc(-c2cncc(C(=O)NCc3ccc4ccc(OC)cn34)n2)cn1` [compound 80], the IC50 was > 1 µM in test [1] and < 0.5 µM in test [2].

As for `CCOc1ccc(-c2cncc(C(=O)N[C@@H]3Cc4c(F)ccc(OC)c4C3)n2)cn1` [compound 81], the values for the IC50 in test [1] and in test [2] were > 1 µM and < 0.5 µM, respectively.

For `CCOc1ccc(-c2cncc(C(=O)N[C@H]3Cc4c(F)ccc(OC)c4C3)n2)cn1` [compound 82], the IC50 was > 1 µM in test [1] and 0.5 to 1 µM in test [2].

For `CCOc1ccc(-c2cncc(C(=O)N[C@H]3Cc4c(OC)cnc(F)c4C3)n2)cn1` [compound 83], the IC50 in test [1] and in test [2] was > 1 µM each time.

On to `CCOc1ccc(-c2cncc(C(=O)N[C@@H]3Cc4c(OC)cnc(F)c4C3)n2)cn1` [compound 84], for which the IC50 in test [1] was > 1 µM; in test [2] it was < 0.5 µM.

`CCOc1ccc(-c2cncc(C(=O)NCc3ncc4ccc(OC)cn34)n2)cn1` [compound 85]: the IC50 in test [1] and in test [2] was > 1 µM in each case.

Take `CCOc1ccc(-c2cncc(C(=O)NCc3cnc4ccc(OC)cn34)n2)cn1` [compound 86]: the IC50 in test [1] and in test [2] was > 1 µM in each case.

Take `[2H]C([2H])([2H])Oc1ccc(-c2cncc(C(=O)NCCc3ccccc3F)n2)cn1` [compound 89]: the IC50 is > 1 µM in test [1] and < 0.5 µM in test [2].

For `[2H]C([2H])([2H])Oc1ccc(-c2cncc(C(=O)NCCc3cc(OC)cnc3F)n2)cn1` [compound 90], the IC50 in test [1] and in test [2] was > 1 µM each time.

For the molecule `[2H]C([2H])([2H])Oc1cc(OC([2H])([2H])[2H])cc([C@H](O)CNC(=O)c2cncc(-c3ccc(OC(F)F)nc3)n2)c1` [compound 91], the results for the IC50 in test [1] and in test [2] were > 1 µM and < 0.5 µM, respectively.

On to `[2H]C([2H])([2H])Oc1cc(OC([2H])([2H])[2H])cc([C@H](O)CNC(=O)c2cncc(-c3ccc(OC([2H])([2H])[2H])nc3)n2)c1` [compound 92], for which the IC50 in test [1] and in test [2] was > 1 µM in each case.

Consider `[2H]C([2H])([2H])Oc1ccc(-c2cncc(C(=O)NC[C@@H](O)c3cc(OC)cc(OC)c3)n2)cc1` [compound 93], for which the IC50 in test [1] is > 1 µM; in test [2], < 0.5 µM.

Turning to `[2H]C([2H])([2H])Oc1ccc(-c2cncc(C(=O)NCCc3cc(OC)cnc3F)n2)cc1` [compound 94], the IC50 in test [1] was > 1 µM; in test [2], < 0.5 µM.

For the molecule `[2H]C([2H])([2H])Oc1ccc(-c2cncc(C(=O)NCCc3cc(OC)cc(OC)c3)n2)cc1` [compound 95], the IC50 is > 1 µM in test [1] and < 0.5 µM in test [2].

`[2H]C([2H])([2H])Oc1cc(OC([2H])([2H])[2H])cc([C@H](O)CNC(=O)c2cncc(-c3ccc(OC(F)F)cc3)n2)c1` [compound 96]: the concentration for half-maximal inhibition (IC50) is > 1 µM in test [1] and < 0.5 µM in test [2].

For `CCOc1ccc(-c2cc(C(=O)NCCc3cc(OC)cnc3F)cnn2)cc1` [compound 100], the IC50 in test [1] and in test [2] was > 1 µM in each case.

In the case of `CCOc1ccc(-c2cnnc(C(=O)NCCc3cc(OC)cnc3F)c2)cc1` [compound 101], the IC50 in test [1] and in test [2] was > 1 µM each time.

For `CCOc1ccc(-c2cncc(C(=O)NCCc3cc(OC)cnc3F)c2)cc1` [compound 102], the IC50 in test [1] and in test [2] was > 1 µM each time.

On to `CCOc1ccc(-c2cccc(C(=O)NCCc3cc(OC)cnc3F)n2)cc1` [compound 103], for which the IC50 in test [1] and in test [2] was > 1 µM in each case.

Regarding `CCOc1ccc(-c2cc(C(=O)NCCc3cc(OC)cnc3F)ccn2)cc1` [compound 104], the IC50 in test [1] and in test [2] was > 1 µM each time.

Consider `CCOc1ccc(-c2ccnc(C(=O)NCCc3cc(OC)cnc3F)c2)cc1` [compound 105], for which the IC50 is < 0.5 µM in test [1] and > 1 µM in test [2].

As to `CCOc1ccc(-c2nccc(C(=O)NCCc3cc(OC)cnc3F)n2)cc1` [compound 106], the IC50 in test [1] and in test [2] was > 1 µM in each case.

Consider `CCOc1ccc(-c2ccnc(C(=O)NCCc3cc(OC)cnc3F)n2)cc1` [compound 107], for which the IC50 in test [1] is > 1 µM; in test [2], 0.5 to 1 µM.

On to `CCOc1ccc(-c2cccc(C(=O)NCCc3cc(OC)cnc3F)n2)cn1` [compound 108], for which the IC50 in test [1] and in test [2] was > 1 µM each time.

For the molecule `CCOc1ccc(-c2cc(C(=O)NCCc3cc(OC)cnc3F)ccn2)cn1` [compound 109], the IC50 in test [1] and in test [2] was > 1 µM in each case.

Turning to `CCOc1ccc(-c2nccc(C(=O)NCCc3cc(OC)cnc3F)n2)cn1` [compound 110], the IC50 in test [1] and in test [2] was > 1 µM in each case.

Consider `CCOc1ccc(-c2cc(C(=O)NCCc3cc(OC)cnc3F)cnn2)cn1` [compound 111], for which the IC50 in test [1] and in test [2] was > 1 µM throughout.

What is called IC50 is the concentration at which inhibition is half-maximal.
